{"source": "patent US20170158776A1", "about": "“TREATMENT OF LUNG CANCER USING A COMBINATION OF AN ANTI-PD-1 ANTIBODY AND ANOTHER ANTI-CANCER AGENT” (Bristol-Myers Squibb Company, priority 2014, published 2017)", "origin": "cited, not measured here", "test_system": "EGFR MT NSCLC", "settings": "first-line treatment of EGFR MT NSCLC; cited from earlier work", "data": [{"smiles": "C#Cc1cccc(Nc2ncnc3cc(OCCOC)c(OCCOC)cc23)c1", "note": "[erlotinib]", "values": [{"measurement": "median progression-free survival (PFS)", "result": 10.4, "unit": "months"}]}]}
